Test results taken from ChEMBL document CHEMBL1909046, “DrugMatrix in vitro pharmacology data”.

How the values were obtained:
[1] = target: Beta-3 adrenergic receptor (Homo sapiens, UniProt P13945); experiment: DRUGMATRIX: Adrenergic beta3 radioligand binding (ligand: [125I] Cyanopindolol); type: cell membranes, HEK293, Membrane; details: Not Active = under 50% inhibition at 10 µM
[2] = target: Matrix metalloproteinase-9 (Homo sapiens, UniProt P14780); experiment: biochemical; type: cell-based;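 also: inhibition of isolated MMP-9 enzyme activity toward a synthetic peptide substrate, from the DrugMatrix protease screening panel; in other assays of this panel Not Active means under 50% inhibition at 10 µM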
[3] = target: T1, Substance-K receptor (Homo sapiens, UniProt P21452); type: cell membranes, CHO, Membrane; details: cho; also: in other assays of this panel Not Active means under 50% inhibition at 10 µM
T1 sequence (P21452 whole entry): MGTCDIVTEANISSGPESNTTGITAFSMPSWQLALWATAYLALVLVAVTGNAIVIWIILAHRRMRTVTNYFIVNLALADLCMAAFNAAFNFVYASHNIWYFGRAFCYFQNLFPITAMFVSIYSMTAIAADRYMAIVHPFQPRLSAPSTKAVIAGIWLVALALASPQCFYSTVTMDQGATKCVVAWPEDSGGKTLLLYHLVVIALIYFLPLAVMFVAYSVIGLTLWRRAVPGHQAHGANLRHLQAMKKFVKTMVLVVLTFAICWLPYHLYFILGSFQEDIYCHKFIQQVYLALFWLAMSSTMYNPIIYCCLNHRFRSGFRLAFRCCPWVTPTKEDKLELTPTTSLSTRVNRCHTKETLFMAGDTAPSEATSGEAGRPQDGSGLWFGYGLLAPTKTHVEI

[4] = target: T2, Polyunsaturated fatty acid lipoxygenase ALOX15 (Oryctolagus cuniculus, UniProt P12530); experiment: biochemical; type: tissue-based, Reticulocytes; details: reticulocytes;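 also: inhibition of 15-lipoxygenase enzyme activity measured with linoleic acid as the substrate; in other assays of this panel Not Active means under 50% inhibition at 10 µM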
T2 sequence (P12530 whole entry): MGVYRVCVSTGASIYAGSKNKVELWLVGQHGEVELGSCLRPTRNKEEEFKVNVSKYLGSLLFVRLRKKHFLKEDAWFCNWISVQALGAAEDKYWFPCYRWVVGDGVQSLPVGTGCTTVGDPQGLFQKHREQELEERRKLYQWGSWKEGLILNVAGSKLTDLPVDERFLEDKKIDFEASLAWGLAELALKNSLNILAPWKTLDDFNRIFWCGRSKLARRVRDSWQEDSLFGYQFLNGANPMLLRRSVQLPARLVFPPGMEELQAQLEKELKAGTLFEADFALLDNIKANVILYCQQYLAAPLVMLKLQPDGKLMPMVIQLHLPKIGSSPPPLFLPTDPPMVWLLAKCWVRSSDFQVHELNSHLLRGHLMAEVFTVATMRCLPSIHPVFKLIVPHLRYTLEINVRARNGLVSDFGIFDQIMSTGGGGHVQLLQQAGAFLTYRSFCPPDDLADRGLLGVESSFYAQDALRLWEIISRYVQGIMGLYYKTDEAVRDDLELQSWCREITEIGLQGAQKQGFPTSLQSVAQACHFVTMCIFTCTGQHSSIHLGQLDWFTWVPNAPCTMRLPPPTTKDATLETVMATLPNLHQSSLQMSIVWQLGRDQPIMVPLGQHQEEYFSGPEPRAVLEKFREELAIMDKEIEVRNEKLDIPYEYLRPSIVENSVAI

[5] = target: 5-hydroxytryptamine receptor 4 (Cavia porcellus, UniProt O70528); type: cell membranes, Dunkin-Hartley, Striatum, Membrane; also: in other assays of this panel Not Active means under 50% inhibition at 10 µM
[6] = DRUGMATRIX: Leukotriene, BLT (LTB4) radioligand binding (ligand: [3H]LTB4); type: cell membranes, Membrane; details: u-937; Not Active = under 50% inhibition at 10 µM
[7] = target: C-C chemokine receptor type 5 (Homo sapiens, UniProt P51681); type: cell membranes, Membrane; details: hek293; also: in other assays of this panel Not Active means under 50% inhibition at 10 µM
[8] = DRUGMATRIX: Calcium Channel Type L, Dihydropyridine radioligand binding (ligand: [3H] Nitrendipine); type: cell membranes, Rattus norvegicus, Wistar, Cerebral cortex, Membrane; details: Not Active = under 50% inhibition at 10 µM

C-C chemokine receptor type 5, sequence (P51681 whole entry): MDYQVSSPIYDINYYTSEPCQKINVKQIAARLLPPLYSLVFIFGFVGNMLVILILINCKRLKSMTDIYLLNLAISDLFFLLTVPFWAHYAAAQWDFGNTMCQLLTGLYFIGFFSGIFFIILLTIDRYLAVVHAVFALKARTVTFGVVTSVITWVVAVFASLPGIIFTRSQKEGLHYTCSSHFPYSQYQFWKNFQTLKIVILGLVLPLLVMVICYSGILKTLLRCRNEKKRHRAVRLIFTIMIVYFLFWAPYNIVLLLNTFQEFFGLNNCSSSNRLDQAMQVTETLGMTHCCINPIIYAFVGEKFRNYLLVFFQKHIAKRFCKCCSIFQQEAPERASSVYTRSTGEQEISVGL
5-hydroxytryptamine receptor 4, sequence (O70528 whole entry): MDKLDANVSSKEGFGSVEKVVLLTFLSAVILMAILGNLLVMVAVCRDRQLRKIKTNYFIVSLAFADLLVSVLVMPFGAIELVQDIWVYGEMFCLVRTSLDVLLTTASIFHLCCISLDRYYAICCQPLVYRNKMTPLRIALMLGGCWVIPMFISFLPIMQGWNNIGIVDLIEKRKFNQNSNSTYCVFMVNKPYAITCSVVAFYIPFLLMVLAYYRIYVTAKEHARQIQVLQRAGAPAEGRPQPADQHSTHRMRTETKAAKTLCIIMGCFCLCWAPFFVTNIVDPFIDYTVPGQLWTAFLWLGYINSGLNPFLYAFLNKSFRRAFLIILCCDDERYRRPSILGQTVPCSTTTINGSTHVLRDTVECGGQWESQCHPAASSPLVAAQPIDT
Matrix metalloproteinase-9, sequence (P14780 whole entry): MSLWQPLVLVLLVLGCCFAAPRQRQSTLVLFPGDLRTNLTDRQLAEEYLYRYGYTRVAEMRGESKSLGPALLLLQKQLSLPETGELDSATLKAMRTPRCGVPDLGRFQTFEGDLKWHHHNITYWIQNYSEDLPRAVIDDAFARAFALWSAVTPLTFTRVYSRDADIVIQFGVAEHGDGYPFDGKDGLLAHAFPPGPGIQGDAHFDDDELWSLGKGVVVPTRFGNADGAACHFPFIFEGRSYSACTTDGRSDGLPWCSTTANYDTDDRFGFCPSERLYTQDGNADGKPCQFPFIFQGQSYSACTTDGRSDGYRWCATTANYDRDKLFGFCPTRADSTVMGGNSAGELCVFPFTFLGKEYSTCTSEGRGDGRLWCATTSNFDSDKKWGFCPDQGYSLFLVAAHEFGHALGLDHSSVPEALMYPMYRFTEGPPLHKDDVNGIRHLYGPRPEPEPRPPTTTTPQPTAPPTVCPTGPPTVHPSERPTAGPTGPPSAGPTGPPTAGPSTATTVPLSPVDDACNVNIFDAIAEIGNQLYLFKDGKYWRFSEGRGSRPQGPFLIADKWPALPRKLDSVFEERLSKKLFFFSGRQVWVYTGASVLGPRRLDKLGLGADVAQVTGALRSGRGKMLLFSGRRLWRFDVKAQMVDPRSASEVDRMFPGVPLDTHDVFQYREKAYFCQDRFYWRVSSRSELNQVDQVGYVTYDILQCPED
Beta-3 adrenergic receptor, sequence (P13945 whole entry): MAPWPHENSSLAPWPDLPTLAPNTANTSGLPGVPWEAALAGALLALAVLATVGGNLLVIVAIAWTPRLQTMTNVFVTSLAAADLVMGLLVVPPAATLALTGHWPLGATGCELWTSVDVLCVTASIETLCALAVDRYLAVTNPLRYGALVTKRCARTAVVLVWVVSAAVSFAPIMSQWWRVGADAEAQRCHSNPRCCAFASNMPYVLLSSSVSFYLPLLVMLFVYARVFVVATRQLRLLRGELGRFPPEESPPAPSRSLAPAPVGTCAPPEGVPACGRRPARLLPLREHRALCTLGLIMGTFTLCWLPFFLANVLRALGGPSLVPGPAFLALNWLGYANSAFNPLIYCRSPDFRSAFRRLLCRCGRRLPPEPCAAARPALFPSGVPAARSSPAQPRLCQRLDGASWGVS

C[C@]12CC[C@H]3[C@@H](CCC4=CC(=O)CC[C@@]43C)[C@@H]1CC[C@@H]2O [TESTOSTERONE]
Not Active: IC50 ([1]; hek293) | IC50 [2] | IC50 [3] | IC50 [4] | IC50 [5] | IC50 [6] | Ki [6] | IC50 [7] | IC50 [8] | Ki [8]

CC(C)(C)NC[C@H](O)COc1nsnc1N1CCOCC1 [TIMOLOL]
452 nM: IC50 ([1]; read-out: IC50)
Not Active: IC50 [2] | IC50 [3] | IC50 [4] | IC50 [5] | IC50 [6] | Ki [6] | IC50 [7] | IC50 [8] | Ki [8]
339 nM: Ki ([1]; read-out: Ki)

CCS(=O)(=O)CCn1c([N+](=O)[O-])cnc1C [TINIDAZOLE]
Not Active: IC50 ([1]; hek293) | IC50 [2] | IC50 [3] | IC50 [4] | IC50 [5] | IC50 [6] | Ki [6] | IC50 [7] | IC50 [8] | Ki [8]

C[C@@H]1C[C@H]2[C@@H]3CCC4=CC(=O)C=C[C@]4(C)C3=CC[C@]2(C)[C@H]1C(=O)CN1CCN(c2cc(N3CCCC3)nc(N3CCCC3)n2)CC1 [TIRILAZAD]
Not Active: IC50 ([1]; hek293) | IC50 [2] | IC50 [3] | IC50 [4] | IC50 [5] | IC50 [6] | Ki [6] | IC50 [7] | IC50 [8] | Ki [8]

NC[C@H]1O[C@H](O[C@H]2[C@H](O)[C@@H](O[C@H]3O[C@H](CO)[C@@H](O)[C@H](N)[C@H]3O)[C@H](N)C[C@@H]2N)[C@H](N)C[C@@H]1O [TOBRAMYCIN]
Not Active: IC50 ([1]; hek293) | IC50 [2] | IC50 [3] | IC50 [4] | IC50 [5] | IC50 [6] | Ki [6] | IC50 [7] | IC50 [8] | Ki [8]

O=C(O)C(Cl)(Cl)Cl [TRICHLOROACETIC ACID]
Not Active: IC50 ([1]; hek293) | IC50 [2] | IC50 [3] | IC50 [4] | IC50 [5] | IC50 [6] | Ki [6] | IC50 [7] | IC50 [8] | Ki [8]

COc1ccc(CN2CCNCC2)c(OC)c1OC [TRIMETAZIDINE]
Not Active: IC50 ([1]; hek293) | IC50 [2] | IC50 [3] | IC50 [4] | IC50 [5] | IC50 [6] | Ki [6] | IC50 [7] | IC50 [8] | Ki [8]

CC(=O)O[C@H]1C[C@@H]2CC[C@@H]3[C@H](CC[C@@]4(C)[C@H]3C[C@H]([N+]3(C)CCCCC3)[C@@H]4OC(C)=O)[C@@]2(C)C[C@@H]1N1CCCCC1.[Br-] [VECURONIUM BROMIDE]
Not Active: IC50 ([1]; hek293) | IC50 [2] | IC50 [3] | IC50 [4] | IC50 [5] | IC50 [6] | Ki [6] | IC50 [7] | IC50 [8] | Ki [8]

COc1cc(C(=O)NS(=O)(=O)c2ccccc2C)ccc1Cc1cn(C)c2ccc(NC(=O)OC3CCCC3)cc12 [ZAFIRLUKAST]
Not Active: IC50 ([1]; hek293) | IC50 [2] | IC50 [3] | IC50 [4] | IC50 [5] | IC50 [6] | Ki [6] | IC50 [7] | IC50 [8] | Ki [8]

Cc1cn([C@H]2C[C@H](N=[N+]=[N-])[C@@H](CO)O2)c(=O)[nH]c1=O [ZIDOVUDINE]
Not Active: IC50 ([1]; hek293) | IC50 [2] | IC50 [3] | IC50 [4] | IC50 [5] | IC50 [6] | Ki [6] | IC50 [7] | IC50 [8] | Ki [8]

STANNOUS FLUORIDE
Not Active: IC50 ([1]; hek293) | Ki ([1]; hek293) | IC50 [2] | Ki [2] | IC50 [3] | Ki [3] | IC50 [4] | Ki [4] | IC50 [5] | Ki [5] | IC50 [6] | Ki [6] | IC50 [7] | Ki [7] | IC50 [8] | Ki [8]

THIMEROSAL
Not Active: IC50 ([1]; hek293) | Ki ([1]; hek293) | IC50 [2] | Ki [2] | IC50 [3] | Ki [3] | IC50 [4] | Ki [4] | IC50 [5] | Ki [5] | IC50 [6] | Ki [6] | IC50 [7] | Ki [7] | IC50 [8] | Ki [8]
